# Read-outs that look alike come from different tables or passages of the source.
# Columns and labels:
# Format in all cases: cell-based
# OR2T4 = molecular target: T1, OR2T4 (Homo sapiens, UniProt Q8NH00, D328E/G331D/M330K); assay: cell-based; settings: OR2T4 with SEQ ID NO: 86
# T1 construct: expressed in transfected cells; host or cells: HEK293T cells stably expressing human RTP1S (V227I) and RTP2 (L220R)
# T1 sequence (Q8NH00 with tags, fused parts or gaps D328E/M330K/G331D): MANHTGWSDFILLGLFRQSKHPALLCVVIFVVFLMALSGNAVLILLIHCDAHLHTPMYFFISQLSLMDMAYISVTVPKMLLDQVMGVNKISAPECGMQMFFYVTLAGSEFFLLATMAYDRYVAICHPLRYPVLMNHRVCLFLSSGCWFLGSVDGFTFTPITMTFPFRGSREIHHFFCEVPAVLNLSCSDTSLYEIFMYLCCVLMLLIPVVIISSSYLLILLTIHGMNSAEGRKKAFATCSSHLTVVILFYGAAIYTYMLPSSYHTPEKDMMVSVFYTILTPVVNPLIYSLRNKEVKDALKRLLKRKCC
# Excerpt: (§1) To create an expression plasmid, an OR coding sequence fused at the end of TM7 to the desired C-terminus sequence was synthesized by a DNA synthesis service provider (BioCat GmbH, Germany) and inserted into pcDNA3.1(+) (Invitrogen, MA, USA) downstream of the CMV promoter sequence (SEQ ID NO: 82) using BamHI and Notl restriction sites. All the synthetic OR nucleotide sequences described below in Examples 1-15 further contained at their N-terminus a nucleotide sequence encoding a signal peptide (mmLucy-FLAG-rho, SeQ ID NOs: 80, 81) and at the C-terminus the bgh terminator sequence (SEQ ID NO: 83). All the OR expression plasmids also contain a Kozak sequence (GCCACC) between the BamHI restriction site and the start codon of the signal peptide. These plasmids thus contain a constitutively expressed OR gene.
# OR7C1 = molecular target: T2, OR7C1 (Homo sapiens, UniProt O76099, D296E/G302K/M297V/R299D/T295K); assay: Luciferase dose-response, wild-type vs changed C-terminus (SEQ ID NO: 86); settings: for EC50: read-out: Potency EC50
# T2 construct: expressed in transfected cells; host or cells: HEK293T cells stably expressing human RTP1S (V227I) and RTP2 (L220R); transient transfection of pcDNA3.1(+) OR plasmid
# T2 sequence (O76099 with tags, fused parts or gaps T295K/D296E/M297V/R299D/G302K limits assumed): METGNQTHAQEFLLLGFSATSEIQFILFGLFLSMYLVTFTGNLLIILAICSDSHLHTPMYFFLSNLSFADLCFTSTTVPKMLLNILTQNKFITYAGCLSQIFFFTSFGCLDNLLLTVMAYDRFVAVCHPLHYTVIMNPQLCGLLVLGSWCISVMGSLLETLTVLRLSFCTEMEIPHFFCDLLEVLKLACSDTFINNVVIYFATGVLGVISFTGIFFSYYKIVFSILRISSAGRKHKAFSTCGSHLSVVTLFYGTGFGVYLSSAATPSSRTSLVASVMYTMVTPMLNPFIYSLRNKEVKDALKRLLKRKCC
# Excerpt: as §1
# OR2AP1 = molecular target: T3, OR2AP1 (Homo sapiens, UniProt Q8NGE2); assay: Luciferase assay with odorant mixtures/single ingredients, OR with SEQ ID NO: 221
# T3 construct: expressed in transfected cells; host or cells: HEK293T stably expressing human RTP1S(V227I) and RTP2(L220R) (general method)
# T3 sequence (Q8NGE2 with tags, fused parts or gaps): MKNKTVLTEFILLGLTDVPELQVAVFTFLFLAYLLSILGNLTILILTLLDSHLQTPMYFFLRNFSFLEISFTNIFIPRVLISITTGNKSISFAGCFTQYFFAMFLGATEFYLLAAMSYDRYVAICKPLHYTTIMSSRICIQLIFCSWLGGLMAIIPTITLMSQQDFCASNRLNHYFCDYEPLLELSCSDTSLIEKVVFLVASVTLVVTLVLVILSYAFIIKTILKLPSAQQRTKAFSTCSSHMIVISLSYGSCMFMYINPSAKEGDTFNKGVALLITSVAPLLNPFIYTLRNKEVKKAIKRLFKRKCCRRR
# OR10A3 = molecular target: T4, OR10A3 (Homo sapiens, UniProt P58181); assay: as above
# T4 construct: expressed in transfected cells; host or cells: HEK293T stably expressing human RTP1S(V227I) and RTP2(L220R) (general method)
# T4 sequence (P58181 with tags, fused parts or gaps): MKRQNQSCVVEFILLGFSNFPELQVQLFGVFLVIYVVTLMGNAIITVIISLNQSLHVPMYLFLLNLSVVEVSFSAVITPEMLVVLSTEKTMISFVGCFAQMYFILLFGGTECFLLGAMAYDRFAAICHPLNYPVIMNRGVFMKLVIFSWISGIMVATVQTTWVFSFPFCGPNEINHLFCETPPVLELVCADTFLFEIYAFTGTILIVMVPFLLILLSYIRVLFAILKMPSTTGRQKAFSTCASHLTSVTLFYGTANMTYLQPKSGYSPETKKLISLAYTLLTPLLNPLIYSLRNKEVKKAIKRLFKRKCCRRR
# Excerpt: (§2) All human class II OR and all key genetic variants of these OR were synthesized with a sequence coding for an identical modified C-terminal domain […] (SEQ ID NO: 221) in the vector pcDNA3.1(+) to generate a library of all class II OR with an improved C-terminal domain. Class II OR library members with modified C-terminal domains
# (§3) Similarly, a mixture of odorants with fruity-lactonic descriptors was made containing equal amounts of dodecalactone delta, heptalactone gamma, octalactone gamma, nonalactone gamma, undecalactone gamma, decalactone gamma, dodecalactone gamma, decalactone delta, methyl tuberate and nectaryl. […] Table 25. OR identified by screening class II OR with a mixture of fruity lactones
# (§4) In a subsequent de-convolution experiment, the single ingredients were tested in a dose-response test on all the identified OR. […] Thus, OR2AP1 and OR2J2 are particularly strongly activated by the long-chain dodecalactone gamma, while OR10A3 is very sensitive to several longer chain lactones. […] Among the five OR, OR10A3 is the most sensitive. […] Table 26. OR identified by screening class II OR with a mixture of fruity lactones tested with individual lactones in a dose-response analysis
# [1] = molecular target: T5, OR10A6(A117V,V140G,L287P) (Homo sapiens, UniProt Q8NH74, A117V/L287P/V140G); assay: as above
# T5 construct: expressed in transfected cells; host or cells: HEK293T stably expressing human RTP1S(V227I) and RTP2(L220R) (general method)
# T5 sequence (Q8NH74 with tags, fused parts or gaps A117V/V140G/L287P): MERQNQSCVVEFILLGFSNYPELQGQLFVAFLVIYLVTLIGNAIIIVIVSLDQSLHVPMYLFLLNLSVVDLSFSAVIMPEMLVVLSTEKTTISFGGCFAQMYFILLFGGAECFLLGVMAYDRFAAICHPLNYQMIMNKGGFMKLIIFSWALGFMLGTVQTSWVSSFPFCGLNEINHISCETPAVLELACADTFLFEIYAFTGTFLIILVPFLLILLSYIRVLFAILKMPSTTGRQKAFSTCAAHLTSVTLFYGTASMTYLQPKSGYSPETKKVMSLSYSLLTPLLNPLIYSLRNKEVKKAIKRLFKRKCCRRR
# Excerpt: as §2, §3, §4
# OR10J1(M51I,I92M) = molecular target: T6, OR10J1(M51I,I92M) (Homo sapiens, UniProt P30954, I103M/M62I); assay: as above
# T6 construct: expressed in transfected cells; host or cells: HEK293T stably expressing human RTP1S(V227I) and RTP2(L220R) (general method)
# T6 sequence (P30954 with tags, fused parts or gaps M62I/I103M): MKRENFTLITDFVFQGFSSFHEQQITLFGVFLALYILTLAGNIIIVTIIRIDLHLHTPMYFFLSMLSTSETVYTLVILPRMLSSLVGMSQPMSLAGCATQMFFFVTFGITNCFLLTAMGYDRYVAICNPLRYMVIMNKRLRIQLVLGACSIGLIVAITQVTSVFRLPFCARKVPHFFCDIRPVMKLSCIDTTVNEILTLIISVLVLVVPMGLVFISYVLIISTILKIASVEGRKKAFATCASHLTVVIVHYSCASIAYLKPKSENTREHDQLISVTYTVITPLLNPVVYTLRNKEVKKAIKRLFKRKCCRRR
# Excerpt: as §2, §3, §4
# OR2J2 = molecular target: T7, OR2J2 (Homo sapiens, UniProt O76002, A146V/A218T/A302I/G300K/H297E/H74Y); assay: as above
# T7 construct: expressed in transfected cells; host or cells: HEK293T stably expressing human RTP1S(V227I) and RTP2(L220R) (general method)
# T7 sequence (O76002 with tags, fused parts or gaps H74Y/A146V/A218T/H297E/G300K/A302I): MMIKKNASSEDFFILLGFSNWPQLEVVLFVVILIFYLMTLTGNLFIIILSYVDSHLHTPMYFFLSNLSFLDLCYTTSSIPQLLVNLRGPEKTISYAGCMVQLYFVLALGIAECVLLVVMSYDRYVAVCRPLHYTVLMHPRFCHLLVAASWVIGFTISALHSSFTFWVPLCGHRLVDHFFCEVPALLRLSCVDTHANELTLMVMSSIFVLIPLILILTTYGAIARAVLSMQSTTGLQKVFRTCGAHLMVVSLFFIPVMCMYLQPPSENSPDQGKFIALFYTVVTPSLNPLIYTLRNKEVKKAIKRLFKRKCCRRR
# Excerpt: as §2, §3, §4
# OR5A2 = molecular target: T8, OR5A2 (Homo sapiens, UniProt Q8NGI9); assay: Luciferase dose-response, wild-type vs changed C-terminus (SEQ ID NO: 86); settings: OR5A2 with SEQ ID NO: 86
# T8 construct: expressed in transfected cells; host or cells: HEK293T cells with stably integrated human RTP1S (V227I) and RTP2 (L220R)
# T8 sequence (Q8NGI9 with tags, fused parts or gaps): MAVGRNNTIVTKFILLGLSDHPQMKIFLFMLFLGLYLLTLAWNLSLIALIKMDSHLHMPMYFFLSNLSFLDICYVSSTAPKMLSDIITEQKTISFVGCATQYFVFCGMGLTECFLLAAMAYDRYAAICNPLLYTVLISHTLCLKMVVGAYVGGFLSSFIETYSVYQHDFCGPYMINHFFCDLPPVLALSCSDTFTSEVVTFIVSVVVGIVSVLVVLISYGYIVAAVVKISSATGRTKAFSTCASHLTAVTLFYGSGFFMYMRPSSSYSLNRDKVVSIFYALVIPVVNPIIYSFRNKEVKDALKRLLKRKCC
# Excerpt: as §1
Structure (SMILES),EC2 (concentration for 2-fold luciferase induction) (OR2AP1),EC10 (concentration for 10-fold OR activation) (OR10A3) [µM],EC2 (concentration for 2-fold luciferase induction) [1],"EC2 (concentration for 2-fold luciferase induction) (OR10J1(M51I,I92M))",EC2 (concentration for 2-fold luciferase induction) (OR2J2),also measured
CC1OCCC1S (stereo not shown) [2-methyl-3-tetrahydrofuranthiol],–,–,–,–,–,ligands identified in screening of sulfur odorants (OR2T4): good ligands
CC(CO)C1=C2C(C)(C)C3CCC2(C3)C(C)(C)CC1 (stereo not shown) [Ambermax],–,–,–,–,–,"Comments on efficacy (OR7C1): 3.5-fold lower maximal induction for wild-type; Fold-improvement potency (OR7C1): 2.7; Fold-improvement threshold (OR7C1): 16.2; luciferase induction (OR7C1; 1 µM, OR7C1 with SEQ ID NO: 86): around 10 fold; EC50 (OR7C1; changed C-term SEQ ID NO: 86): 2.3 µM; Detection threshold; concentration for 2-fold induction (OR7C1; changed C-term. SEQ ID NO: 86): 0.17 µM; Detection threshold; concentration for 2-fold induction (OR7C1; wild-type): 2.76 µM; EC50 (OR7C1; wild-type): 6.14 µM"
CCCCCC1CCCC(=O)O1 (stereo not shown) [Decalactone delta],inactive,2.10,5.31 µM,31.73 µM,98.89 µM,–
CCCCCCC1CCC(=O)O1 (stereo not shown) [Decalactone gamma],33.66 µM,0.84,1.62 µM,3.63 µM,3.27 µM,–
CCCCCCCC1CCCC(=O)O1 (stereo not shown) [Dodecalactone delta],15.76 µM,2.59,1.11 µM,31.38 µM,35.12 µM,–
CCCCCCCCC1CCC(=O)O1 (stereo not shown) [Dodecalactone gamma],1.31 µM,0.85,0.48 µM,5.31 µM,1.41 µM,–
CCCC1CCC(=O)O1 (stereo not shown) [Heptalactone gamma],inactive,298.04,inactive,inactive,inactive,–
CC1=CCC(C(C)CC2CCCC2=O)CC1 (stereo not shown) [Nectaryl],19.72 µM,2.32,1.12 µM,inactive,–,–
CCCCCC1CCC(=O)O1 (stereo not shown) [Nonalactone gamma],inactive,2.83,11.34 µM,11.14 µM,12.85 µM,–
CCCCC1CCC(=O)O1 (stereo not shown) [Octalactone gamma],inactive,26.93,inactive,101.73 µM,65.20 µM,–
CCCCCCCC1CCC(=O)O1 (stereo not shown) [Undecalactone gamma],6.53 µM,0.28,0.34 µM,2.11 µM,0.71 µM,–
CCCSSCCC [dipropyl disulfide],–,–,–,–,–,ligands identified in screening of sulfur odorants (OR2T4): good ligands
CCOc1cc(C=O)ccc1O [ethyl vanillin],–,–,–,–,–,response of the modified receptor (OR5A2): no response
